Source: patent US8017584B2, “GD3-mimetic peptides” (Otsuka Pharmaceutical Co., Ltd., priority 2000, dated 2011)
Several values for one entry are separate records, joined by “and”; a condition that tells them apart may be missing. Equal values may be shown once.

What was measured:
[1] = tested on: Anti-GD2 antibody; assay: ELISA of immobilized MAP-form peptides with control anti-GD2 antibody; type: binding; details: MAP form 100 ng/well
Procedure: (§1) A 0.1M NaHCO3 solution containing a GD3-mimetic peptide of the invention in the above MAP form (100 ng/100 μL) was added to the wells of a 96-well micro-titer plate, for immobilization at room temperature for one hour. Subsequently, in a manner similar to the ELISA method employed in Example 2, binding affinity of the GD3-mimetic peptide to GD3 antibody 4F6 was investigated.
(§2) Anti-GD2 antibody and anti-OAcGD3 antibody (Cerato, E., et al., Hybridoma, 16(4), 307-316 (1997)) were used as controls (these antibodies were kindly provided by from Dr. Portoukalian).

[2] = tested on: Anti-OAcGD3 antibody; assay: ELISA of immobilized MAP-form peptides with control anti-OAcGD3 antibody; type: binding; details: MAP form 100 ng/well
Procedure: as §1, §2

[3] = Titer against GD3 (ELISA) of antiserum from mice immunized with MAP peptides (Example 4); type: in vivo, mice (C57BL/6); details: individual mice
Procedure: Four species of GD3-mimetic peptide (MAP) obtained in Example 3 (2) was dissolved in PBS so as to attain a concentration of 200 μg/mL. The solution was added to Freund's complete (or incomplete) adjuvant (1:1, by volume), to thereby prepare an emulsion.
Eight mice (C57BL/6) were immunized by subcutaneous administration of the above emulsion (0.2 mL/mouse, in one administration, […]). Administration was performed every two weeks (for the second and subsequent administrations, Freund's incomplete adjuvant was used). After one week following respective administrations, blood was collected from the tail of each mouse, to thereby yield antiserum.
The antiserum obtained directly after the first administration will be referred to “1-st,” that obtained after the second administration will be referred to “2-nd,” and that obtained after the third administration will be referred to “3-rd.”
The titer, against GD3, of each of the antiserum samples (3×8 mice=24 samples) obtained in the (1) above was measured through ELISA as described below.
The thus-obtained purified GD3 was dissolved in methanol, whereby a GD3 solution having a concentration of 10 μg/mL was prepared. The GD3 solution was added to the wells of a 96-well micro-titer plate in amounts of 10 μL per well (which corresponds to 100 ng GD3 per well), and methanol was evaporated. Subsequently, a blocking solution (TBS supplemented with 1% BSA) was added to the wells in amounts of 50 μL per well, for blocking at 37° C. for 4 hours.
The supernatant was discarded. Each of the antiserum samples obtained in (1) above was diluted 100-fold, 400-fold, or 1,600 fold with the above-mentioned blocking solution. The diluted antiserum (50 μL) was added to each well for reaction at 4° C. overnight. The well was washed six times with TBS, and thereafter, HRP-labeled […] diluted 5,000-fold with the blocking solution was added (50 μL per well) for reaction for 2 hours at room temperature. The well was washed four times with TBS, and thereafter, enzymatic activity (peroxidase) of the well was detected with TMB solution (50 μL). The reaction was stopped with 1N HCl (50 μL), and the value corresponding to “420 nm-620 nm” was calculated.
A control sample was prepared as follows. […] The synthesized peptide was administered to a mouse for immunization, and the obtained antiserum served as a control sample. The titer of the control sample was obtained in a manner similar to that described above. (However, the number of provided mice was five, and only a 100-fold diluted solution was used.) This control peptide sample was also used in the form of MAP as described above.

[4] = tested on: T-cell-rich lymphocytes / IL-2-dependent CTLL2 cells; assay: Cell response test: IL-2 activity (3H thymidine up-take of CTLL2 cells) in supernatant of spleen cells of mice immunized with GD3; type: cell-based, mouse; details: mice immunized with GD3
[5] = tested on: T-cell-rich lymphocytes / IL-2-dependent CTLL2 cells; assay: Cell response test: IL-2 activity (3H thymidine up-take of CTLL2 cells) in supernatant of spleen cells of mice immunized with R4 peptide (R4-KLH); type: cell-based, mouse; details: mice immunized with R4 peptide
[6] = stimulant 1 μg/ml, supernatant dilution 1/20
[7] = stimulant 1 μg/ml, supernatant dilution 1/50
[8] = stimulant 1 μg/ml, supernatant dilution ½
[9] = stimulant 1 μg/ml, supernatant dilution ⅕
[10] = stimulant 2 μg/ml, supernatant dilution 1/20
[11] = stimulant 2 μg/ml, supernatant dilution 1/50
[12] = stimulant 2 μg/ml, supernatant dilution ½
[13] = stimulant 2 μg/ml, supernatant dilution ⅕
[14] = stimulant 5 μg/ml, supernatant dilution 1/20
[15] = stimulant 5 μg/ml, supernatant dilution 1/50
[16] = stimulant 5 μg/ml, supernatant dilution ½
[17] = stimulant 5 μg/ml, supernatant dilution ⅕

PHFDSLLYPCELLGC (PHFDSLLYPCQLLGC) [GD3R2, tested as phage clone, MAP form or peptide]
ELISA absorbance, Anti-GD2 antibody ([1]; Serum % 12.50%): 0.052 | ELISA absorbance, Anti-GD2 antibody ([1]; Serum % 25%): 0.071 | ELISA absorbance, Anti-GD2 antibody ([1]; Serum % 50%): 0.079 | ELISA absorbance, Anti-GD2 antibody ([1]; Serum % 100%): 0.132 | ELISA absorbance, Anti-OAcGD3 antibody ([2]; Serum % 12.50%): 0.021 | ELISA absorbance, Anti-OAcGD3 antibody ([2]; Serum % 25%): 0.023 | ELISA absorbance, Anti-OAcGD3 antibody ([2]; Serum % 50%): 0.027 | ELISA absorbance, Anti-OAcGD3 antibody ([2]; Serum % 100%): 0.038 | reactivity of antiserum with GD3 (ELISA absorbance) ([3]; antiserum 1st (after first administration), dilution factor 1/100, MAP 5 μg/mouse s.c.): 0.042 and 0.114 and 0.087 and 0.155 and 0.076 and 0.084 and 0.316 and 0.062 | reactivity of antiserum with GD3 (ELISA absorbance) ([3]; antiserum 1st, dilution factor 1/400): 0.031 and 0.068 and 0.05 and 0.078 and 0.055 and 0.044 and 0.252 and 0.035 | reactivity of antiserum with GD3 (ELISA absorbance) ([3]; antiserum 1st, dilution factor 1/1600): 0.053 and 0.028 (2×) and 0.045 and 0.014 and 0.034 and 0.179 and 0.022 | reactivity of antiserum with GD3 (ELISA absorbance) ([3]; antiserum 2nd (after second administration), dilution factor 1/100): 0.183 and 0.135 and 0.142 and 0.131 and 0.115 and 0.072 and 0.069 and 0.34 | reactivity of antiserum with GD3 (ELISA absorbance) ([3]; antiserum 2nd, dilution factor 1/400): 0.078 and 0.049 and 0.071 and 0.034 and 0.091 and 0.039 and 0.047 and 0.241 | reactivity of antiserum with GD3 (ELISA absorbance) ([3]; antiserum 2nd, dilution factor 1/1600): 0.039 and 0.035 and 0.025 and 0.016 (2×) and 0.033 and 0.034 and 0.13 | reactivity of antiserum with GD3 (ELISA absorbance) ([3]; antiserum 3rd (after third administration), dilution factor 1/100): 0.08 and 0.053 and 0.057 and 0.184 and 0.09 and 0.05 and 0.098 and 0.113 | reactivity of antiserum with GD3 (ELISA absorbance) ([3]; antiserum 3rd, dilution factor 1/400): 0.075 and 0.053 and 0.084 and 0.161 and 0.089 and 0.059 and 0.086 and 0.099 | reactivity of antiserum with GD3 (ELISA absorbance) ([3]; antiserum 3rd, dilution factor 1/1600): 0.023 (2×) and 0.014 and 0.008 and 0.053 and 0.028 and 0.012 and 0.036 | 3H Thymidine up-take into CTLL2 cells, mean ± SE (4 wells) [4, 6]: 792 ± 88 | 3H Thymidine up-take into CTLL2 cells, mean ± SE (4 wells) [4, 7]: 185 ± 31 | 3H Thymidine up-take into CTLL2 cells, mean ± SE (4 wells) [4, 8]: 2957 ± 326 | 3H Thymidine up-take into CTLL2 cells, mean ± SE (4 wells) [4, 9]: 1784 ± 164 | 3H Thymidine up-take into CTLL2 cells, mean ± SE (4 wells) [4, 10]: 856 ± 107 | 3H Thymidine up-take into CTLL2 cells, mean ± SE (4 wells) [4, 11]: 192 ± 40 | 3H Thymidine up-take into CTLL2 cells, mean ± SE (4 wells) [4, 12]: 3057 ± 321 | 3H Thymidine up-take into CTLL2 cells, mean ± SE (4 wells) [4, 13]: 1719 ± 184 | 3H Thymidine up-take into CTLL2 cells, mean ± SE (4 wells) [4, 14]: 931 ± 124 | 3H Thymidine up-take into CTLL2 cells, mean ± SE (4 wells) [4, 15]: 203 ± 36 | 3H Thymidine up-take into CTLL2 cells, mean ± SE (4 wells) [4, 16]: 3022 ± 316 | 3H Thymidine up-take into CTLL2 cells, mean ± SE (4 wells) [4, 17]: 1717 ± 198 | 3H Thymidine up-take into CTLL2 cells, mean ± SE (4 wells) [5, 6]: 745 ± 136 | 3H Thymidine up-take into CTLL2 cells, mean ± SE (4 wells) [5, 7]: 178 ± 38 | 3H Thymidine up-take into CTLL2 cells, mean ± SE (4 wells) [5, 8]: 2857 ± 493 | 3H Thymidine up-take into CTLL2 cells, mean ± SE (4 wells) [5, 9]: 1714 ± 239 | 3H Thymidine up-take into CTLL2 cells, mean ± SE (4 wells) [5, 10]: 694 ± 141 | 3H Thymidine up-take into CTLL2 cells, mean ± SE (4 wells) [5, 11]: 163 ± 41 | 3H Thymidine up-take into CTLL2 cells, mean ± SE (4 wells) [5, 12]: 2764 ± 322 | 3H Thymidine up-take into CTLL2 cells, mean ± SE (4 wells) [5, 13]: 1653 ± 286 | 3H Thymidine up-take into CTLL2 cells, mean ± SE (4 wells) [5, 14]: 748 ± 162 | 3H Thymidine up-take into CTLL2 cells, mean ± SE (4 wells) [5, 15]: 174 ± 32 | 3H Thymidine up-take into CTLL2 cells, mean ± SE (4 wells) [5, 16]: 2849 ± 396 | 3H Thymidine up-take into CTLL2 cells, mean ± SE (4 wells) [5, 17]: 1628 ± 245
